The supplement of paper PMC13380429

What was measured:
Settings in all cases: 72 h
Caco-2 [1] = assay: cell viability relative to DMSO; higher = less toxic
Calu-3 [2] = assay: as above
HepG2 [3] = assay: as above
U2OS [4] = assay: as above
Vero E6 [5] = assay: as above
Caco-2 [6] = assay: relative viability EC50 (midpoint between 100% and the lowest measured viability); higher = less toxic
Calu-3 [7] = assay: as above
U2OS [8] = assay: as above
Vero E6 [9] = assay: as above
Caco-2 [10] = assay: drug sensitivity score (DSS) for viability; higher = more toxic; extreme values may be limits of the assay
Calu-3 [11] = assay: as above
HepG2 [12] = assay: as above
U2OS [13] = assay: as above
Vero E6 [14] = assay: as above
HepG2 [15] = assay: relative viability EC50 (midpoint between 100% and the lowest measured viability); higher = less toxic

Compound	cell viability (Caco-2 [1]; 1 nM)	cell viability (Caco-2 [1]; 10 nM)	cell viability (Caco-2 [1]; 100 nM)	cell viability (Caco-2 [1]; 1000 nM)	cell viability (Caco-2 [1]; 10000 nM)	cell viability (Calu-3 [2]; 1 nM)	cell viability (Calu-3 [2]; 10 nM)	cell viability (Calu-3 [2]; 100 nM)	cell viability (Calu-3 [2]; 1000 nM)	cell viability (Calu-3 [2]; 10000 nM)	cell viability (HepG2 [3]; 1 nM)	cell viability (HepG2 [3]; 10 nM)	cell viability (HepG2 [3]; 100 nM)	cell viability (HepG2 [3]; 1000 nM)	cell viability (HepG2 [3]; 10000 nM)	cell viability (U2OS [4]; 1 nM)	cell viability (U2OS [4]; 10 nM)	cell viability (U2OS [4]; 100 nM)	cell viability (U2OS [4]; 1000 nM)	cell viability (U2OS [4]; 10000 nM)	cell viability (Vero E6 [5]; 1 nM)	cell viability (Vero E6 [5]; 10 nM)	cell viability (Vero E6 [5]; 100 nM)	cell viability (Vero E6 [5]; 1000 nM)	cell viability (Vero E6 [5]; 10000 nM)	relative viability EC50 (Caco-2 [6])	relative viability EC50 (Calu-3 [7])	relative viability EC50 (U2OS [8])	relative viability EC50 (Vero E6 [9])	drug sensitivity score (Caco-2 [10])	drug sensitivity score (Calu-3 [11])	drug sensitivity score (HepG2 [12])	drug sensitivity score (U2OS [13])	drug sensitivity score (Vero E6 [14])	relative viability EC50 (HepG2 [15])
CC(C)Oc1ccc(Cc2ccc(NC3=NCCN3)cc2)cc1	102%	96.1%	99.3%	99.4%	82.3%	104%	99.8%	95.7%	96.6%	88.2%	102%	94.6%	104%	97.4%	71.6%	95.3%	102%	95.3%	98.4%	90.7%	96.9%	97.6%	101%	99.5%	96.7%	> 10 µM	> 10 µM	> 10 µM	> 10 µM	0.5	0	1.6	0	0	–
CCN(CC)Cc1ccc(C(=O)N(CCc2ccccc2OC)[C@@H]2CCNC2)cc1	99.2%	93%	91.6%	101%	98.2%	–	–	–	–	–	97.9%	96.6%	108%	104%	70.5%	95.5%	95.7%	96.9%	97.2%	99.3%	90.3%	97.9%	91.5%	93.1%	99.9%	> 10 µM	–	> 10 µM	> 10 µM	0	–	1	0	0	–
O=C1NC(=O)/C(=C/c2ccc3c(c2)OC(F)(F)O3)S1	94.5%	97.9%	84.6%	81%	35.1%	97.4%	89.3%	46.8%	30.5%	24.7%	95.8%	95.6%	101%	98.9%	75.2%	94.3%	96.2%	89.6%	91.2%	51.3%	103%	94.6%	87.8%	63%	45.1%	1.62 µM	0.0473 µM	–	0.401 µM	5.6	20.7	1.1	4	8.2	> 10 µM
NCCc1ccccn1 [2-pyridylethylamine]	110%	96.4%	107%	101%	108%	98.8%	88.4%	93.4%	105%	101%	113%	104%	113%	113%	93.6%	–	–	–	–	–	95.2%	105%	105%	102%	96.6%	> 10 µM	> 10 µM	–	> 10 µM	0	0	0	–	0	> 10 µM
Cn1cc(CCn2cnc(-c3cnn(C)c3)c2-c2ccc(C#N)cc2)cn1 [BAZ2-ICR]	–	–	–	–	–	–	–	–	–	–	–	–	–	–	–	–	–	–	–	–	–	–	–	–	–	> 10 µM	> 10 µM	–	> 10 µM	0	0	0	0	0	> 10 µM
COc1ccc(-c2csc(NC(=O)[C@H]3CCCCN3S(=O)(=O)c3ccc(C)cc3)n2)cc1 [ML277]	89.5%	93.2%	97.8%	90.6%	69.2%	91%	104%	92.1%	92.6%	99.2%	97.7%	99.7%	112%	101%	60.1%	98.4%	98.1%	101%	94.2%	90.1%	109%	102%	105%	105%	99.9%	–	> 10 µM	> 10 µM	> 10 µM	2.6	0	1.9	0	0	–
CN[C@@H](C)C(=O)N[C@H]1CCCC[C@H]2CC[C@@H](C(=O)N[C@@H](c3ccccc3)c3cn(CCCCc4ccc(CCCCn5cc([C@@H](NC(=O)[C@@H]6CC[C@@H]7CCCC[C@H](NC(=O)[C@H](C)NC)C(=O)N76)c6ccccc6)nn5)cc4)nn3)N2C1=O [SM-164]	105%	109%	85.5%	84%	98.4%	103%	90%	99%	89.2%	81.3%	106%	104%	98.6%	96.9%	90.1%	99.5%	108%	102%	98.8%	99.7%	–	–	–	–	–	> 10 µM	> 10 µM	> 10 µM	–	2.7	0.9	0	0	–	> 10 µM
Cc1ccc(-c2nc3ccc(C)cn3c2CC(=O)N(C)C)cc1 [ZOLPIDEM]	95.5%	97%	117%	95.1%	98.1%	102%	109%	97%	95.9%	105%	110%	97.7%	101%	97.1%	99.6%	101%	104%	101%	100%	96.2%	–	–	–	–	–	> 10 µM	> 10 µM	> 10 µM	–	0	0	0	0	–	> 10 µM
FC(F)c1nc2ccccc2n1-c1nc(N2CCOCC2)nc(N2CCOCC2)n1 [ZSTK-474]	102%	99.2%	97.9%	68.2%	27.1%	101%	102%	95.3%	84%	40.6%	105%	106%	98.5%	75.6%	34.3%	96%	97.4%	98.1%	95.6%	60%	95.2%	101%	90.3%	69.8%	42.4%	1.14 µM	1.51 µM	–	0.768 µM	7.9	5.6	6.9	2.7	6.8	1.25 µM
Cc1cccc(C)c1NC(=O)c1ccc(N)cc1 [ameltolide]	89.3%	94.4%	102%	110%	85.4%	95.7%	92.7%	83%	92.5%	97.1%	99.6%	89.3%	86.2%	76%	98.7%	97%	103%	94.6%	99.2%	94.2%	–	–	–	–	–	> 10 µM	> 10 µM	> 10 µM	–	0.1	0	0	0	–	> 10 µM
CCC(C)(CN(C)C)OC(=O)c1ccccc1 (stereo unspecified) [amyleine]	115%	88.1%	97.3%	101%	92.7%	106%	95.6%	101%	102%	114%	106%	103%	109%	98.1%	88.7%	–	–	–	–	–	108%	99.8%	99%	104%	100%	> 10 µM	> 10 µM	–	> 10 µM	0	0	0.1	–	0	> 10 µM
COC(=O)[C@H](Cc1ccccc1)NC(=O)[C@@H](N)CC(=O)O [aspartame]	97.8%	99.1%	101%	99.6%	94%	91.2%	100%	92.8%	89.4%	96.5%	98.3%	91.6%	98.2%	94.3%	102%	99.8%	99.7%	98.6%	103%	101%	–	–	–	–	–	> 10 µM	> 10 µM	> 10 µM	–	0	0	0	0	–	> 10 µM
COC(=O)N[C@H](C(=O)N1CCC[C@H]1c1ncc(-c2ccc(-c3ccc(-c4cnc([C@@H]5CCCN5C(=O)[C@@H](NC(=O)OC)C(C)C)[nH]4)cc3)cc2)[nH]1)C(C)C [daclatasvir]	104%	96.1%	107%	98.7%	83.1%	107%	90.6%	93.1%	96.1%	99.7%	120%	116%	112%	106%	92%	104%	101%	101%	102%	90.3%	–	–	–	–	–	> 10 µM	> 10 µM	> 10 µM	–	0.5	0	0	0	–	> 10 µM
N#Cc1nn(-c2c(Cl)cc(C(F)(F)F)cc2Cl)c(N)c1[S+]([O-])C(F)(F)F (stereo unspecified) [fipronil]	103%	105%	102%	96.7%	94.1%	99.3%	92%	102%	103%	102%	98.2%	109%	97.8%	91.1%	103%	–	–	–	–	–	106%	102%	99.2%	101%	102%	> 10 µM	> 10 µM	–	> 10 µM	0	0	0	–	0	> 10 µM
CCCCCCCCCC(=O)OC1(c2ccc(Cl)cc2)CCN(CCCC(=O)c2ccc(F)cc2)CC1 [haloperidol-decanoate]	104%	104%	104%	93.5%	105%	103%	105%	112%	99.8%	114%	112%	108%	106%	112%	97.1%	107%	101%	104%	101%	99.2%	–	–	–	–	–	> 10 µM	> 10 µM	> 10 µM	–	0	0	0	0	–	> 10 µM
CC(=O)N(CC(O)CN(C(C)=O)c1c(I)c(C(=O)NCC(O)CO)c(I)c(C(=O)NCC(O)CO)c1I)c1c(I)c(C(=O)NCC(O)CO)c(I)c(C(=O)NCC(O)CO)c1I (stereo unspecified) [iodixanol]	96.9%	102%	87%	102%	102%	88.1%	107%	95.9%	97.2%	96.3%	107%	99.2%	108%	102%	105%	95.4%	101%	95.6%	108%	97.5%	–	–	–	–	–	> 10 µM	> 10 µM	> 10 µM	–	0	0	0	0	–	> 10 µM
